Measurements as given in patent US10501479B2, “Benzenesulfonyl-asymmetric ureas and medical uses thereof” (HELSINN HEALTHCARE SA, priority 2016, dated 2019).
“And” between values parts separate entries of the source, which are not always exact repeats. Identical values can stand only once. Like-named read-outs stand apart in the source and are kept apart here.

Legend:
[1] = Plasma protein binding (PPB), rat; format: in vitro ADME; conditions: read-out: PPB (R) (converted)
[2] = Plasma protein binding (PPB), human; format: in vitro ADME; conditions: read-out: PPB (H)
hERG = hERG (Homo sapiens, UniProt Q12809); experiment: hERG inhibition
Chain of hERG (Q12809 whole entry): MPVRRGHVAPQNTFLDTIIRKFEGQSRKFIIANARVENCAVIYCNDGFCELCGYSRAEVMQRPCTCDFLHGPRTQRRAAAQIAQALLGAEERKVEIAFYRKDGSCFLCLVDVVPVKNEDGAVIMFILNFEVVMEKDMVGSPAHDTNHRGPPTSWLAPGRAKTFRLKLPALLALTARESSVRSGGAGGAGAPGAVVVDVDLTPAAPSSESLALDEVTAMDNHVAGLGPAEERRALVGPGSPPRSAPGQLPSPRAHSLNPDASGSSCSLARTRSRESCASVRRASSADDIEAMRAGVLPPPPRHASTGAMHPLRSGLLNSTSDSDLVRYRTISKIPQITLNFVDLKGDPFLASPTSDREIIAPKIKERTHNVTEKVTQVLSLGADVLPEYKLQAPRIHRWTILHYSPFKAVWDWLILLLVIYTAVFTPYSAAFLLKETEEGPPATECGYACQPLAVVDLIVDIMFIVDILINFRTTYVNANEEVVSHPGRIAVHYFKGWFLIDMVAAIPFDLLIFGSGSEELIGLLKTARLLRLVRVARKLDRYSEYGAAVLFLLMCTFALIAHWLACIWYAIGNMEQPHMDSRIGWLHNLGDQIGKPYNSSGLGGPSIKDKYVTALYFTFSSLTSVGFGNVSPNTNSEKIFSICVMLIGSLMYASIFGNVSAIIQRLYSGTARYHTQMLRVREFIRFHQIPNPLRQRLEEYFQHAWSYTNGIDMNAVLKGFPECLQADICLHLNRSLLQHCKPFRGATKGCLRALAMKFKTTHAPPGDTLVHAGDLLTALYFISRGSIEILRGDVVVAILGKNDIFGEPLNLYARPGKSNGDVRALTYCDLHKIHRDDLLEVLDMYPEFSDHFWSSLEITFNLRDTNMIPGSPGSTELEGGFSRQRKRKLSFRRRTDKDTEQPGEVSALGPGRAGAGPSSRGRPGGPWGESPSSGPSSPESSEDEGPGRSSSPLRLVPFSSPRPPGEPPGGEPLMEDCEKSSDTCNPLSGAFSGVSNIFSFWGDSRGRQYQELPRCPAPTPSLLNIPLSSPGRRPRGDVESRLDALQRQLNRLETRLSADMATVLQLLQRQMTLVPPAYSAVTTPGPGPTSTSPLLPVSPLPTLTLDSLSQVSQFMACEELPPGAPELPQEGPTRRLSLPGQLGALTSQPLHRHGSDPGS

[3] = molecular target: T1, GHSR-1a (HEK293/GHSR1a cell line) (Homo sapiens, UniProt Q92847); experiment: Ghrelin antagonist potency (IC50) with calcium FLIPR assay, ghrelin 10 nM; format: cell-based
T1 construct: expressed in transfected cells; host or cells: HEK293/GHSR1a cell line
T1 sequence (Q92847 whole entry): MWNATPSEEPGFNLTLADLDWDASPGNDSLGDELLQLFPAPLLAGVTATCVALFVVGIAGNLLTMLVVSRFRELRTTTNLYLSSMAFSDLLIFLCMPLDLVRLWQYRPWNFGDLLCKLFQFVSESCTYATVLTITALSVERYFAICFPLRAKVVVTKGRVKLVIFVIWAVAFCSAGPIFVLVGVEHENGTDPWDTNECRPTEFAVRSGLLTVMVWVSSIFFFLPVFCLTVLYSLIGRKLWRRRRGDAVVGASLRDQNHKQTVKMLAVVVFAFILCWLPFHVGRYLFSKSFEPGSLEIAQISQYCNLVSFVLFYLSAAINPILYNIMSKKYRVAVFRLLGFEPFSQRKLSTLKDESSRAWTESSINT
How it was run: (§1)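 In this assay, compound alone assesses agonism, while compound co-added with ghrelin at 10 nM assesses antagonism. In both modes the calcium-dye signal is tracked for 2 min from t=20 sec.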

[4] = Animal PK study in dog (i.v., p.o.); format: in vivo; conditions: for PK CLiv / PK Vdiv / PK t1/2iv: i.v.; for PK CLpo / PK Vdpo / PK t1/2po: p.o.
[5] = Metabolic stability in human liver microsomes; format: in vitro ADME
How it was run: (§2)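 Loss of parent over time in microsomal incubations at 37 °C with NADPH regeneration, sampled up to 90 min and read by LC-MS/MS.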

[6] = Plasma protein binding (PPB), mouse; format: in vitro ADME
[7] = Animal PK study in rat via i.v., p.o. and s.c. administration; format: in vivo; conditions: rat
[8] = molecular target: T2, recombinant human ghrelin receptor (HEK293/GRLN) (Homo sapiens, UniProt Q92847); experiment: Ghrelin inverse agonist potency (EC50) with IP-1 (IP-One HTRF) assay; format: cell-based; conditions: IP-1 assay
T2 construct: expressed in transfected cells
T2 sequence (Q92847 whole entry): as above
How it was run: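 IP-1 accumulation was measured by HTRF (IP1-d2/Tb-cryptate, 620/665 nm read after 1 hour at room temperature) following 1 hour of compound treatment at 37° C. Cells were HEK293 stably expressing human ghrelin receptor, plated a day earlier on Matrigel. Inverse agonist potency was reported as EC50.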

[9] = Metabolic stability in mouse liver microsomes; format: in vitro ADME
How it was run: as §2

[10] = Animal PK study in mouse via i.v., p.o. and s.c. administration; format: in vivo; conditions: for Vd / clearance / half-life: plasma; for clearance: read-out: PK CL i.v.
How it was run: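 Plasma drug levels were measured by LC-MS/MS after acetonitrile precipitation, with blood drawn up to 24 h post-dose (from 0.083 h i.v./s.c., 0.25 h oral) in mice or rats. Animals received one dose by gavage in DMSO/methylcellulose, or by tail-vein or subcutaneous injection in DMSO/HP-β-cyclodextrin.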

[11] = Metabolic stability in rat liver microsomes; format: in vitro ADME
How it was run: as §2

[12] = Metabolic stability in dog liver microsomes; format: in vitro ADME
How it was run: as §2

[13] = Plasma protein binding (PPB), human; format: in vitro ADME; conditions: read-out: PPB (H) (converted)
[14] = Plasma protein binding (PPB), mouse; format: in vitro ADME; remark: listed apart in the source
[15] = Plasma protein binding (PPB), rat; format: in vitro ADME; conditions: read-out: PPB (R)
[16] = Plasma protein binding (PPB), dog; format: in vitro ADME; conditions: read-out: PPB (D) (converted)
[17] = molecular target: T1, GHSR-1a (HEK293/GHSR1a cell line); experiment: Ghrelin agonist potency (EC50) with calcium FLIPR assay; format: cell-based
How it was run: as §1

[18] = Plasma protein binding (PPB), human (H); format: in vitro ADME
[19] = Plasma protein binding (PPB), rat (R); format: in vitro ADME
[20] = ghrelin antagonist potency, read-out: IC50 (Activity)
[21] = inverse agonist potency, read-out: EC50 (Activity)
[22] = HEK293/GRLN, read-out: Activity EC50 (ghrelin inverse agonist potency)
[23] = HEK293/GHSR1a, read-out: Activity EC50/EMax: EC50 (ghrelin agonist potency)
[24] = iv, 5 mg/kg, i.v., read-out: PK t1/2 i.v.
[25] = po, 10 mg/kg, p.o., read-out: PK t1/2 p.o.
[26] = ghrelin antagonist potency, read-out: Activity IC50
[27] = ghrelin inverse agonist potency, read-out: Activity EC50
[28] = ghrelin agonist potency, read-out: Activity EC50/EMax

SMILES: CC(NC(=O)Nc1ccc(S(=O)(=O)Cc2ccc3c(c2)CNC3)cc1)c1ccccc1.Cl (centres unmarked) [H1148, 1-(4-((isoindolin-5-ylmethyl)sulfonyl)phenyl)-3-(1-phenylethyl)urea]
- fraction unbound [1]: 0.055
- fraction unbound [2]: 0.088
- hERG inh (hERG): 12.52 µM
- IC50 [3, 20]: 10 nM
- PK F [4]: 15.7 (D) %
- PK CLiv [4]: 12 mL/min/kg
- PK Vdiv [4]: 2.34 (D) L/Kg
- PK t1/2iv [4]: 2.32 (D) h
- PK CLpo [4]: 80.3 mL/min/kg
- PK Vdpo [4]: (M); 14.74 (D) L/Kg
- PK t1/2po [4]: 2.34 (D) h
- Metabolic Stability Study H = human [5]: 22.2 µL/min/mg
- fraction unbound [6]: 0.077
- PK Vdiv ([7]; i.v.): 104.5 (R); L/Kg
- PK t1/2iv ([7]; i.v.): 0.51 (R); h
- EC50 [8, 21]: 2.9 nM and 3.13 nM
- Metabolic Stability Study M = mouse [9]: 21.1 µL/min/mg
- PK t1/2iv ([10]; i.v.): 1.37 h and 2.13 h
- PK CLpo ([10]; p.o.): 1610 mL/min/kg and 2742 mL/min/kg

SMILES: CC(NC(=O)Nc1ccc(S(=O)(=O)Cc2ccc3c(c2)CN(C)C3)cc1)c1ccccc1 (centres unmarked) [H1194, 1-(4-(((2-methylisoindolin-5-yl)methyl)sulfonyl)phenyl)-3-(1-phenylethyl)urea]
- fraction unbound [2]: 0.076
- hERG inh (hERG): 22.6 µM
- IC50 [3, 20]: 38.3 nM
- PK F [4]: 54.07 (D) %
- PK CLiv [4]: 16.7 mL/min/kg
- PK Vdiv [4]: 2.11 (D) L/Kg
- PK t1/2iv [4]: 1.44 (D) h
- PK CLpo [4]: 30.7 mL/min/kg
- PK Vdpo [4]: 4.05 (D) L/Kg
- PK t1/2po [4]: 1.5 (D) h
- Metabolic Stability Study H = human [5]: 111.6 µL/min/mg
- Metabolic Stability Study R = rat [11]: 56 µL/min/mg
- Metabolic Stability Study D = dog [12]: 14 µL/min/mg
- fraction unbound [6]: 0.06
- PK F [7]: 11.9 (R); %
- PK CLiv ([7]; i.v.): 94.7 mL/min/kg
- PK Vdiv ([7]; i.v.): 8.86 (R); L/Kg
- PK t1/2iv ([7]; i.v.): 1.08 (R); h
- PK CLpo ([7]; p.o.): 848 mL/min/kg
- PK Vdpo ([7]; p.o.): 232.2 (R); L/Kg
- PK t1/2po ([7]; p.o.): 4.54 (R); h
- EC50 [8, 21]: 16.8 nM
- Metabolic Stability Study M = mouse [9]: 64.2 µL/min/mg
- PK F [10]: 15.56 (M); %
- PK CLiv ([10]; i.v.): 60.2 mL/min/kg
- PK Vdiv ([10]; i.v.): 6.33 L/kg
- PK t1/2iv ([10]; i.v.): 1.21 (M); h
- PK CLpo ([10]; p.o.): 380 mL/min/kg
- PK Vdpo ([10]; p.o.): 53.3 (M); L/Kg
- PK t1/2po ([10]; p.o.): 1.62 (M); h

SMILES: CC(NC(=O)Nc1ccc(S(=O)(=O)Nc2ccc3c(c2)CCN(C)C3)cc1)c1cccc(Cl)c1Cl (centres unmarked) [H1333, 4-(3-(1-(2,3-dichlorophenyl)ethyl)ureido)-N-(2-methyl-1,2,3,4-tetrahydroisoquinolin-6-yl)benzenesulfonamide]
- IC50 ([3]; HEK293/GHSR1a, ghrelin 10 nM, read-out: Activity IC50 (ghrelin antagonist potency)): 2.24 nM
- fraction unbound [13]: 0.0011
- fraction unbound [14]: 0.0006
- fraction unbound [15]: 0.001
- fraction unbound [16]: 0.0015
- Metabolic Stability Study H = human [5]: 47.2 µL/min/mg
- EC50 [8, 22]: 1.3 nM
- EC50 [17, 23]: > 30000 nM
- Metabolic Stability Study M = mouse [9]: 54 µL/min/mg
- PK F [10]: 2.08%
- PK CL p.o. ([10]; p.o.): 1400 mL/min/kg
- PK Vd p.o. ([10]; p.o.): 170 L/kg
- Vd ([10]; iv, 5 mg/kg): 3.26 L/kg
- clearance ([10]; iv, 5 mg/kg, i.v.): 29.7 mL/min/kg
- half-life [10, 24]: 1.27 h
- half-life [10, 25]: 1.4 h

SMILES: COc1cc(S(=O)(=O)Cc2ccc3c(c2)CCNC3)ccc1NC(=O)NC(C)c1cccc(Cl)c1Cl.Cl (centres unmarked) [H1415, 1-(1-(2,3-dichlorophenyl)ethyl)-3-(2-methoxy-4-(((1,2,3,4-tetrahydroisoquinolin-6-yl)methyl)sulfonyl)phenyl)urea]
- fraction unbound [13]: 0.0015
- fraction unbound [14]: 0.0007
- fraction unbound [15]: 0.0023
- Metabolic Stability Study H = human [5]: < 10 µL/min/mg
- Metabolic Stability Study R = rat [11]: 28.3 µL/min/mg
- Metabolic Stability Study D = dog [12]: 10.5 µL/min/mg
- clearance ([7]; plasma, iv, 5 mg/kg, i.v., read-out: PK CL i.v. (R)): 35.3 mL/min/kg
- Vd ([7]; plasma, iv, 5 mg/kg, i.v., read-out: PK Vd i.v. (R)): 39.7 L/kg
- half-life ([7]; plasma, iv, 5 mg/kg, i.v., read-out: PK t1/2 i.v. (R)): 13 h
- PK F (R) [7]: 8.9%
- PK CL i.p. (R) ([7]; i.p.): 46 mL/min/kg
- PK Vd i.p. (R) ([7]; i.p.): 61.91 L/kg
- PK t1/2 i.p. (R) ([7]; i.p.): 17/23
- EC50 [8, 22]: 0.573 nM and 0.4 nM
- EC50 [17, 23]: > 30000 nM
- Metabolic Stability Study M = mouse [9]: 12.8 µL/min/mg
- PK F [10]: 1.12%
- PK CL p.o. ([10]; p.o.): 1240 mL/min/kg
- PK Vd p.o. ([10]; p.o.): 326.9 L/kg
- Vd ([10]; iv, 5 mg/kg): 1.72 L/kg
- clearance ([10]; iv, 5 mg/kg, i.v.): 17.2 mL/min/kg
- half-life [10, 24]: 1.16 h
- half-life [10, 25]: 3.04 h

SMILES: CC(NC(=O)Nc1ccc(S(=O)(=O)Cc2ccc3c(c2)CNC3)cc1C(=O)O)c1ccccc1.Cl (centres unmarked) [H1486, 5-((isoindolin-5-ylmethyl)sulfonyl)-2-(3-(1-phenylethyl)ureido)benzoic acid]
- IC50 [3, 26]: 9.21 nM
- Metabolic Stability Study H = human [5]: H = <10 M = <10 μL/min/mg
- fraction unbound [18]: 0.0519
- EC50 [8, 27]: 4.9 nM
- EC50 [17, 28]: > 30000 nM
- Metabolic Stability Study M = mouse [9]: H = <10 M = <10 μL/min/mg
- fraction unbound [19]: 0.0265

SMILES: COc1cc(S(=O)(=O)Cc2ccc3c(c2)CCNC3)ccc1NC(=O)N(O)C(C)c1cccc(Cl)c1Cl (centres unmarked) [H1497, 1-(1-(2,3-dichlorophenyl)ethyl)-1-hydroxy-3-(2-methoxy-4-(((1,2,3,4-tetrahydroisoquinolin-6-yl)methyl)sulfonyl)phenyl)urea]
- IC50 [3, 26]: 2.81 nM
- Metabolic Stability Study H = human [5]: H = <10 μL/min/mg
- fraction unbound [18]: 0.0016
- EC50 [8, 27]: 3.3 nM
- EC50 [17, 28]: > 30000 nM
- fraction unbound [19]: 0.002

SMILES: COc1cc(S(=O)(=O)Cc2ccc3c(c2)CCNC3)ccc1NC(=O)N(O)C(C)c1ccccc1 (centres unmarked) [H1498, 1-hydroxy-3-(2-methoxy-4-(((1,2,3,4-tetrahydroisoquinolin-6-yl)methyl)sulfonyl)phenyl)-1-(1-phenylethyl)urea]
- IC50 [3, 26]: 24.8 nM
- Metabolic Stability Study H = human [5]: H = 9.9 μL/min/mg
- fraction unbound [18]: 0.0123
- EC50 [8, 27]: 7.2 nM
- EC50 [17, 28]: > 30000 nM
- fraction unbound [19]: 0.0294
